These results are taken from patent US9573961B2, “Inhibitors of the renal outer medullary potassium channel” (Merck Sharp & Dohme Corp., priority 2012, dated 2017).

By IC50 is commonly meant the concentration that inhibits the measured activity by half.

Like-named read-outs stand apart in the source and are kept apart here.

The target of assay [1] is hROMK (hKir1.1) (Homo sapiens (Human), UniProt P48048). Kind of assay: Thallium Flux Assay (ROMK channel functional thallium flux, FLIPR-Tetra). The assay is classed as cell-based. Conditions: HEK293 cells stably expressing hROMK (hKir1.1); read-out: Thallium Flux IC50. The essentials: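 HEK293 cells stably expressing hROMK loaded with FluxOR dye for 90 min, then incubated with compound for 30 min at 23-25 °C. Normalized to a 3 μM standard ROMK inhibitor as % fluorescence change.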
Chain of hROMK (hKir1.1) (P48048 whole entry): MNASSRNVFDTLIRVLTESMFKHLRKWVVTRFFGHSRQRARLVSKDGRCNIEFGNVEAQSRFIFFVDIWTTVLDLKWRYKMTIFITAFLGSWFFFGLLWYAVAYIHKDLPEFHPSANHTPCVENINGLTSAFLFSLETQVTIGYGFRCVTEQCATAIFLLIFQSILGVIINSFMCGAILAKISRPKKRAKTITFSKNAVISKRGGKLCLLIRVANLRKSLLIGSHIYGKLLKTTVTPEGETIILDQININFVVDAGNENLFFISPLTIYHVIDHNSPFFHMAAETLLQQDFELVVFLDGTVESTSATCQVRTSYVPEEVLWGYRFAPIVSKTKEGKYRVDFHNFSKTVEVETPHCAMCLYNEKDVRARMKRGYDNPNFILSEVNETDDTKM

The target in assay [2] is Kir1.1 (ROMK1) (Homo sapiens (Human), UniProt P48048). Nature of the assay: Electrophysiology Assay (whole cell voltage clamp, IonWorks Quattro). The assay is classed as cell-based. Particulars: block during voltage step to 0 mV. The essentials:
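CHO cells stably expressing the channel, induced overnight with 1 mM sodium butyrate, were recorded in amphotericin-perforated patch mode. The test pulse was a 100 ms step to 0 mV from −70 mV, then a −70 to +70 mV ramp, applied before and after a 6 min compound incubation. Current amplitudes were compared.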
(In general: In patch-clamp work, channel activity is measured electrically.)

Where [3] appears, read: Electrophysiology IC50, Chinese hamster ovary cells stably expressing Kir1.1.
[4] abbreviates: Chinese hamster ovary cells stably expressing Kir1.1, read-out: Electrophysiology IC50.

Chain of Kir1.1 (ROMK1) (P48048 whole entry): as above

With `Cc1c([C@H]2CN3CCN(C(=O)Cc4ccc(-n5cnnn5)cc4)C[C@H]3CO2)ccc(Cl)c1C#N` [Example 35, 6-chloro-2-methyl-3-[(3S,9aS)-8-{[4-(1H-tetrazol-1-yl)phenyl]acetyl}octahydropyrazino[2,1-c][1,4]oxazin-3-yl]benzonitrile], the results for the IC50 in assay [1] and in assay [2] (setting [3]) were 760 nM and 260 nM, respectively.
Regarding `Cc1cc(F)c(C#N)cc1[C@@H]1CN2CCN(C(=O)Cc3ccc(-n4cnnn4)cc3)C[C@H]2CO1` [Example 38, 2-fluoro-4-methyl-5-[(3R,9aS)-8-{[4-(1H-tetrazol-1-yl)phenyl]acetyl}octahydropyrazino[2,1-c][1,4]oxazin-3-yl]benzonitrile], the IC50 amounted to 110 nM in assay [1] and 180 nM in assay [2] (setting [4]).
Consider `Cc1c([C@@H]2CN3CCN(C(=O)Cc4ccc(-n5cnnn5)cc4)C[C@H]3CO2)csc1C#N` [Example 39, 3-methyl-4-[(3R,9aS)-8-{[4-(1H-tetrazol-1-yl)phenyl]acetyl}octahydropyrazino[2,1-c][1,4]oxazin-3-yl]thiophene-2-carbonitrile], for which the IC50 in assay [1] and in assay [2] (setting [3]) was 60 nM each time.
Regarding `Cc1c([C@H]2CN3CCN(C(=O)Cc4ccc(-n5cnnn5)cc4)C[C@H]3CO2)csc1C#N` [Example 40, 3-methyl-4-[(3S,9aS)-8-{[4-(1H-tetrazol-1-yl)phenyl]acetyl}octahydropyrazino[2,1-c][1,4]oxazin-3-yl]thiophene-2-carbonitrile], the IC50 in assay [1] is 90 nM; in assay [2] (setting [3]) it was 80 nM.
For the compound `Cc1c(C#N)cccc1[C@@H]1CN2CCN(C(=O)Cc3ccc(-n4cnnn4)cc3)C[C@H]2CO1` [Example 42, 2-methyl-3-[(3R,9aS)-8-{[4-(1H-tetrazol-1-yl)phenyl]acetyl}octahydropyrazino[2,1-c][1,4]oxazin-3-yl]benzonitrile], the IC50 in assay [1] worked out at 90 nM; in assay [2] (setting [4]), 130 nM.
As to `Cc1c(C#N)cccc1[C@H]1CN2CCN(C(=O)Cc3ccc(-n4cnnn4)cc3)C[C@H]2CO1` [Example 43, 2-methyl-3-[(3S,9aS)-8-{[4-(1H-tetrazol-1-yl)phenyl]acetyl}octahydropyrazino[2,1-c][1,4]oxazin-3-yl]benzonitrile], the IC50 amounted to 140 nM in assay [1] and 170 nM in assay [2] (setting [4]).
Taken in the same sequence, the figures for `Cc1c([C@H]2CN3CCN(C(=O)C4Cc5ccc(-n6cnnn6)cc5C4)C[C@H]3CO2)ccc(F)c1C#N` (stereo partly drawn) [Example 44, 6-fluoro-2-methyl-3-[(3S,9aS)-8-{[5-(1H-tetrazol-1-yl)-2,3-dihydro-1H-inden-2-yl]carbonyl}octahydropyrazino[2,1-c][1,4]oxazin-3-yl]benzonitrile] were 370 nM and 160 nM.
Taken in the same sequence, the figures for `Cc1c([C@@H]2CN3CCN(C(=O)C(C)c4ccc(-n5cnnn5)cc4)C[C@H]3CO2)ccc(F)c1C#N` (stereo partly drawn) [Example 45, 6-fluoro-2-methyl-3-[(3R,9aS)-8-{2-[4-(1H-tetrazol-1-yl)phenyl]propanoyl}octahydropyrazino[2,1-c][1,4]oxazin-3-yl]benzonitrile] were 330 nM and 210 nM.
Taken in the same sequence, the figures for `Cc1c([C@H]2CN3CCN(C(=O)Cc4cccc(-n5cnnn5)c4)C[C@H]3CO2)ccc(F)c1C#N` [Example 46, 6-fluoro-2-methyl-3-[(3S,9aS)-8-{[3-(1H-tetrazol-1-yl)phenyl]acetyl}octahydropyrazino[2,1-c][1,4]oxazin-3-yl]benzonitrile] were 240 nM and 140 nM.
For `Cc1c([C@@H]2CN3CCN(C(=O)Cc4cccc(-n5cnnn5)c4)C[C@H]3CO2)ccc(F)c1C#N` [Example 47, 6-fluoro-2-methyl-3-[(3R,9aS)-8-{[3-(1H-tetrazol-1-yl)phenyl]acetyl}octahydropyrazino[2,1-c][1,4]oxazin-3-yl]benzonitrile], the IC50 was 300 nM in assay [1] and 90 nM in assay [2] (setting [4]).
